Results taken from PMC12844257, “Click Chemistry-Enabled Parallel Synthesis of N-Acyl Sulfonamides and Their Evaluation as Carbonic Anhydrase Inhibitors” (Molecules, 2026).
Where “and” joins values, the source holds several entries; their conditions need not be identical. Equal entries are not always repeated. Where two headings read alike, the source gives them in different places.

Experiments:
[1] = biological target: T1, hCA-IX (catalytic domain) (Homo sapiens, UniProt Q16790); test: hCA esterase activity inhibition assay (p-nitrophenyl acetate hydrolysis) with IC50 determination; format: biochemical
Method: (§1) The catalytic activity of hCA-II and hCA-IX was monitored through the enzymatic hydrolysis of p-nitrophenyl acetate. […]
(§2) hCA esterase activity inhibition screening assay (with IC50 determination) The protocol was adapted from the work by Wu and co-authors.3 Briefly, the catalytic activity of human hCA-IX (catalytic domain) and hCA-II recombinant proteins was monitored by following the hydrolysis of p-nitrophenyl […]
(§3) prepared in DMSO) as a reference compound, were titrated from 200 µM to 0.01 µM at 3× serial dilutions (10-point […]
(§4) HCl, 200 mM NaCl, pH 7.5), and aliquoted into the assay-ready plates with tested compounds immediately prior to the analysis using an automated multichannel dispenser Multidrop Combi (Thermo Fischer Scientific).
(§5) The products of the hydrolysis reaction are acetate and nitrophenolate, which ionizes to give a bright yellow anion […]
(§6) The compounds were formatted into 384-well plates in the following manner. The first two columns (n = 32 wells) […]
(§7) In between, the tested compounds were placed at the defined dilution step of the 10-points concentration curve, each point of which was a quadruplicate (n = 4 wells). Thus, the […]
(§8) deviation of <0.05, were used for further assessment of each point of inhibition curves; they were not shown in the […]
(§9) performed with Labcyte Echo liquid handler to prepare assay-ready plates. Reaction was run in 25 µL of assay buffer […]
(§10) Enzymatic reactions were initiated by pipetting 5 mM stock solution of 4-nitrophenyl acetate (4-NPA) in ethanol to each well (final concentration in the reaction mixture – 0.5 mM for hCA-II and 0.9 mM for hCA-IX). The final reaction volume was 27.5 µL. The enzyme activity was evaluated by monitoring the production of colored product, 4- […]
(§11) SpectraMax M5 (Molecular Devices). The assay was performed twice for each enzyme.
(§12) Each data point of the titration curve was calculated as average of aggregate data value of four measurements per each concentration (technical replicate for each concentration n = 4). The IC50 values were calculated using GraphPad […]
(§13) for maximum inhibition of the enzyme (as described above) and apply this value for further calculation of the percent […]
(§14) Secondly, it was also titrated as one of the tested compounds to ensure that the assay is performing properly withing the given range of the known inhibitor […]
(§15) compounds in Figures S4 and S5.

[2] = biological target: T2, hCA-II (Homo sapiens, UniProt P00918); test: as above; format: biochemical
T2 construct: recombinant hCA-IX (catalytic domain) and hCA-II (full-length protein); made in house; host or cells: E. coli
Method: as §1, §2, §3, §4, §5, §6, §7, §8, §9, §10, §11, §12, §13, §14, §15

[3] = biological target: T1, hCA-IX (catalytic domain); test: Thermal shift assay (TSA / differential scanning fluorimetry); format: binding; details: for ΔTm, median: at 40 µM compound, n = 4
[4] = biological target: hCA-II (full-length protein) (Homo sapiens, UniProt P00918); test: as above; details: for Tm: hCA-II
[5] = 917 nM hCA-IX, 4-NPA, 10-point curve, n = 4, read-out: IC50
[6] = 200 nM hCA-II, 0.5 mM 4-NPA, 10-point curve, n = 4, read-out: IC50
[7] = hCA-IX, bound stated, read-out: potency (IC50)
[8] = hCA-II, bound stated, read-out: potency (IC50)

| IC50 [1, 5] | IC50 [2, 6] | ΔTm, median [3] [°C] | Tm ([3]; screening at 20 µM) [°C] | ΔTm ([3]; screening at 20 µM) [°C] | Tm ([3]; screening at 40 µM) [°C] | Tm ([4]; screening at 20 µM) [°C] | Tm ([4]; screening at 40 µM) [°C] | ΔTm at 20 µM ([4]; read-out: ΔTm) [°C] | ΔTm at 40 µM ([4]; read-out: ΔTm) [°C] | IC50 ([1]; 917 nM hCA-IX, 4-NPA, 10-point curve, n = 4, listed as 4(16,7,28), read-out: IC50) [µM] | IC50 [1, 7] [µM] | IC50 [2, 8] [µM] | ΔTm at 40 µM ([4]; read-out: ΔTm, median) [°C] | ΔTm ([3]; screening at 40 µM) [°C] | SMILES |
| --- | --- | --- | --- | --- | --- | --- | --- | --- | --- | --- | --- | --- | --- | --- | --- |
| 17.3 µM | 8.7 µM and 8.74 µM | 1.17 | 55.81 | 0.18 | 57.23 | 55.24 | 55.22 | 0.92 | 0.7 |  |  |  |  |  | Cc1cc(C(=O)NS(=O)(=O)c2cccc(-n3cc(-c4ccc5nonc5c4)nn3)c2)on1 [7{2,21,60}] |
| 23.4 µM | 6.1 µM and 6.07 µM | 1.44 | 56.91 | 1.28 | 57.51 | 54.82 | 54.73 | 0.5 | 0.21 |  |  |  |  |  | O=C(NS(=O)(=O)c1ccc(-c2cn(CC3COc4ccccc4O3)nn2)cc1)c1cnsc1 (stereo not drawn) [4{17,7,27}] |
| 7.13 µM | 1.7 µM | 1.18 | 56.77 | 1.14 | 57.24 | 54.35 | 51.97 | 0.03 |  | 7.1 | < 10 | < 10 | -2.55 |  | Cc1cc(C(=O)NS(=O)(=O)c2ccc(-c3cn(CCN(C)Cc4cccc(F)c4)nn3)cc2)ccn1 [4{16,7,28}] |
| 1.1 µM and 1.11 µM | 0.2 µM |  | 56.80 | 1.17 | 56.98 | 51.10 | 49.58 | -3.22 |  |  | < 10 | < 10 | -4.95 | 0.92 | COCC(=O)NS(=O)(=O)c1ccc(-c2cn(CCN(C)Cc3cccc(F)c3)nn2)cc1 [4{16,7,19}] |
